Laboratory results taken from publication PMC3472114 (Journal of molecular biology, 2012).
One block for each molecule: values may come before it.

Key:
[1] = biological target: T1, galactosamine-6-sulfatase (GALNS) (Homo sapiens, UniProt P34059); experiment: biochemical
T1 sequence (P34059 27-522): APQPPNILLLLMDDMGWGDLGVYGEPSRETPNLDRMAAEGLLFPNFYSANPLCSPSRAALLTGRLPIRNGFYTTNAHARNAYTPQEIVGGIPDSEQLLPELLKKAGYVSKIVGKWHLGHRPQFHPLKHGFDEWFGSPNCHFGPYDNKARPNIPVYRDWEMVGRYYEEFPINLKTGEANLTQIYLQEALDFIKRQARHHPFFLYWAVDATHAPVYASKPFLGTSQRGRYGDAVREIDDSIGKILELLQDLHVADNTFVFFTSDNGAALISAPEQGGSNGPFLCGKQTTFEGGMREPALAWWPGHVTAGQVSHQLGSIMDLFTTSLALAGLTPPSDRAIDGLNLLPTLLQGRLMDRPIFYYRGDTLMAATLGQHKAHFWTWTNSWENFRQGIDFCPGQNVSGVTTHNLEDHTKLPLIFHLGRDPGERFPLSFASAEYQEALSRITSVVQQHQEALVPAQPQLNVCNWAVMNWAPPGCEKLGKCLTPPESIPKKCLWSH

[2] = substrate: Cc1cc(=O)oc2cc(O[C@@H]3O[C@H](COS(=O)(=O)O)[C@H](O)[C@H](O)[C@H]3O)ccc12; type: biochemical, Homo sapiens; details: Ca2+; Cys79 modified to formylglycine/dihydroxyalanine (DHA) active site

Ki [1]: 570 ± 150 µM
Molecule: O=S(=O)(O)O [sulfate]

B1: galactosamine-6-sulfatase (GALNS) (Homo sapiens) (protein)
chain: T1 sequence (P34059 27-522)
Km [2]: 13 ± 2 mM
